The text below walks through data of patent publication US20080103045A1, “Preparation For Eradicating Algae And Microorganisms In Aqueous Environment” (LIFETECH S.R.O., priority 2005, published 2008).

Molecules are shown by their SMILES.

Some test systems named below: Scenedesmus quadricauda; Raphidocelis subcapitata; Mycrocystis incerta; Anabaena sp.; Chlorella kessleri.
Details in all cases: effective concentration of copper cations
Assay [1] deals with Synechococcus leopoliensis.

As for `O=S(=O)([O-])[O-].[Cu+2]` [copper sulfate], the “EC50 (mg/l Cu(II))” value in the assay with Scenedesmus quadricauda was 1.15 mg/l Cu(II); in the assay on Raphidocelis subcapitata, 1.27 mg/l Cu(II); in assay [1] it was 1.26 mg/l Cu(II); with Mycrocystis incerta, 1.26 mg/l Cu(II); with Anabaena sp., 0.50 mg/l Cu(II); in the assay on Chlorella kessleri it was 1.14 mg/l Cu(II).
